Measured values published in US4402961A, “Derivatives of 1-(2-,3- or 4-quinolyl)-2- or -3-(2- or 3-piperidyl or -pyrrolidinyl) ethanone or propanone, and their utilization as antiarrhythmics, anticonvulsivants and for the treatment of anxiety” (Pharmindustrie, priority 1980, dated 1983).

molecular target: Cerebral Binding Sites of the Benzodiazepines; assay: not given; conditions: not given

Question: How did the Ki turn out when `COc1ccc2nccc(C(=O)CCC3CCCNC3)c2c1` (stereo not drawn) [Example 1, 1-[4-(6-methoxy)quinolyl]-3-(3-piperidyl)-1-propanone] was run?
Answer: The Ki was 2000 nM.

Question: `O=C(CCC1CCCNC1)c1cc(-c2ccccc2)nc2ccccc12` (stereo not drawn) [Example 4, 1-[4-(2-phenyl)quinolyl]-3-(3-piperidyl)-1-propanone] was tested. Which Ki did it give?
Answer: Its Ki is 800 nM.

Question: `COc1ccc2nccc(CCCC3CCCNC3)c2c1` (stereo not drawn) [Example 11, 6-methoxy-4-[3-(3-piperidyl)-propyl]-quinoline] was tested. Which Ki did it give?
Answer: Its Ki is 5500 nM.

Question: How did the Ki turn out when `c1ccc(-c2cc(CCC3CCCNC3)c3ccccc3n2)cc1` (stereo not drawn) [Example 13, 2-phenyl-4-[2-(3-piperidyl)-ethyl]-quinoline] was run?
Answer: Its Ki is 100 nM.

Question: `c1ccc(-c2cc(CCCC3CCCNC3)c3ccccc3n2)cc1` (stereo not drawn) [Example 14, 2-phenyl-4-[3-(3-piperidyl)-propyl]-quinoline] was tested. Which Ki did it give?
Answer: The Ki was 1000 nM.

Question: `Clc1ccc(-c2cc(CCC3CCCNC3)c3ccccc3n2)cc1` (stereo not drawn) [Example 20, 2-(4-chloro-phenyl)-4-[2-(3-piperidyl)-ethyl]-quinoline] was tested. Which Ki did it give?
Answer: The Ki was 1600 nM.

Question: With `c1ccc(-c2cc(CCC3CCCCN3)c3ccccc3n2)cc1` (stereo not drawn) [Example 22, 2-phenyl-4-[2-(2-piperidyl)-ethyl]-quinoline] as the compound, how does the Ki read?
Answer: Its Ki is 600 nM.

Question: Which Ki does the source give for `CN1CCCC(CCc2cc(-c3ccccc3)nc3ccccc23)C1` (stereo not drawn) [Example 23, 4-{2-[3-(1-methyl)piperidyl]-ethyl}-2-phenyl-quinoline] here?
Answer: Its Ki is 900 nM.

Question: For `CN1CCCC(CCCc2cc(-c3ccccc3)nc3ccccc23)C1` (stereo not drawn) [Example 24, 4-{3-[3-(1-methyl)piperidyl]-propyl}-2-phenyl-quinoline], which Ki is on record?
Answer: The Ki was 3000 nM.

Question: `c1ccc(-c2cc(CCC3CCNC3)c3ccccc3n2)cc1` (stereo not drawn) [Example 29, 2-phenyl-4-[2-(3-pyrrolidinyl)-ethyl]-quinoline] was tested. Which Ki did it give?
Answer: Its Ki is 700 nM.

Question: Which Ki does the source give for `c1ccc(-c2cc(CCCC3CCCCN3)c3ccccc3n2)cc1` (stereo not drawn) [Example 30, 4-[3-(2-piperidyl)-propyl]-2-phenyl-quinoline] here?
Answer: Its Ki is 2700 nM.

molecular target: Cerebral Binding Sites of the Benzodiazepines; assay: displacement of tritiated Diazepam (3H Diazepam) from cerebral benzodiazepine binding sites (method of Mohler and Coll.); conditions: read-out: KD, constant of affinity of 3H Diazepam; constant used in the Ki formula

Question: How did the Kd turn out when `CN1C(=O)CN=C(c2ccccc2)c2cc(Cl)ccc21` [^3 H Diazepam] was run?
Answer: The Kd was 2740 nM.

test system: ventricular arrhythmias caused by the aconitine; assay: aconitine test on the rat (antiarrhythmic activity); format: in vivo; conditions: iv, read-out: ED50, dose which increases by 50% the time of perfusion of the aconitine versus control animals
Protocol: The principle of the method rests on the time of induction of the ventricular arrhythmias caused by the aconitine which is slowly perfused in rats. An antiarrhythmic substance retards the appearance of the arrhythmias and the delay is proportional to the activity of the molecule.
Groups of 5 male rats are used. An individual annesthesia is realized (10% urethane: 1 g/kg/ip) in order to permit a catheterization of the vein of the penis. The electrocardiogram is recorded. At time T=O the substance studied is injected in the form of an aqueous solution, at the rate of 2.5 ml of solution per kg in 30 seconds. At time T=90 seconds, say 1 minute after the end of the injection, the aconitine is perfused at the rate of 20 μg per minute, until the appearance of extra […] systoles. The time of perfusion of the aconitine is noted.
The results are expressed by ED50, which is the dose of product in mg/kg which increases by 50% the time of perfusion of the aconitine in comparison with the perfusion time of aconitine for the control animals.

Question: With `O=C(CC1CCCNC1)c1cc(-c2ccccc2)nc2ccccc12` (stereo not drawn) [Example 3, 1-[4-(2-phenyl)quinolyl]-2-(3-piperidyl)-ethanone] as the compound, how does the ED50 read?
Answer: The ED50 was 2.8 mg/kg.

Question: For `COc1ccc2nccc(CCCC3CCCNC3)c2c1` (stereo not drawn) [Example 11, 6-methoxy-4-[3-(3-piperidyl)-propyl]-quinoline], which ED50 is on record?
Answer: The ED50 was 7.8 mg/kg.

Question: Which ED50 does the source give for `c1ccc(-c2cc(CCCC3CCCNC3)c3ccccc3n2)cc1` (stereo not drawn) [Example 14, 2-phenyl-4-[3-(3-piperidyl)-propyl]-quinoline] here?
Answer: Its ED50 is 2.2 mg/kg.
